Like-named read-outs stand apart in the source and are kept apart here. Marks after values point to notes of the source that are not given here.
Experiments:
C. perfringens [1] = format: in vivo, broilers (male Ross×Ross chicks); details: Virginiamycin 20 g/ton, formulated yeast 0.5 lb/ton, ground pepper 0.3 lb/ton, combination 0.3 + 0.5 lb/ton
C. perfringens [2] = format: in vivo, broilers (male Ross×Ross chicks); details: 20 g/ton

## Virginiamycin
C. perfringens [1]; 15 d
  Body weight gain: 0.38 kg
  Feed Conversion: 1.32^xy
  Feed consumption: 0.44^ab Kg
C. perfringens [1]; 35 d
  Body weight gain: 1.57^xy Kg
  Feed Conversion: 1.73
  Feed consumption: 2.62 kg
C. perfringens [1]; 42 d
  Body weight gain: 2.17 kg
  Feed Conversion: 1.76
  Feed consumption: 3.70 kg
C. perfringens [1]
  Necrotic enteritis related mortality, %: 3.50%
  Total Mortality %: 0.50%
C. perfringens [2]
  Total Mortality %: 5.36%
C. perfringens [2]; 15 d
  Body weight gain: 0.33 kg
  Feed Conversion: 1.33^b
  Feed consumption: 0.39 kg
C. perfringens [2]; 35 d
  Body weight gain: 1.10^ab Kg
  Feed Conversion: 1.62^abc
  Feed consumption: 1.73^x Kg
C. perfringens [2]; 42 d
  Body weight gain: 2.27 kg
  Feed Conversion: 1.74^abc
  Feed consumption: 3.90^xy Kg
